# Assay results from BindingDB's records for patent US20250243186 (Hansoh Bio, 2025).
# Target: T1, Complement factor B [470-764] (UniProt P00751)
# T1 construct: 470-764
# Test: Factor B Binding Assay by TR-FRET
# Experimental: Table 1: Factor B binding affinity of each compound tested was determined using a time-resolved fluorescence resonance energy transfer (TR-FRET) technology. 10 nM recombinant his-tagged Factor B catalytic domain, varying concentrations of inhibitors, 4 nM LANCE Eu-W1024 Anti-6×His Antibody and 100 nM TR-FRET_tool2 tracer was incubated in 1× Kinase Buffer A for 1 h. Measurement was performed in a reaction volume of 15 μL by adding 5 μL of the test compound, 5 μL of Factor B/antibody mixture and 5 μL of tracer into white opaque 384-well assay plates. The TR-FRET signal was read on a plate reader with an excitation wavelength of 340 nm and detection wavelengths of 615 and 665 nm.
# T1 sequence (P00751 470-764): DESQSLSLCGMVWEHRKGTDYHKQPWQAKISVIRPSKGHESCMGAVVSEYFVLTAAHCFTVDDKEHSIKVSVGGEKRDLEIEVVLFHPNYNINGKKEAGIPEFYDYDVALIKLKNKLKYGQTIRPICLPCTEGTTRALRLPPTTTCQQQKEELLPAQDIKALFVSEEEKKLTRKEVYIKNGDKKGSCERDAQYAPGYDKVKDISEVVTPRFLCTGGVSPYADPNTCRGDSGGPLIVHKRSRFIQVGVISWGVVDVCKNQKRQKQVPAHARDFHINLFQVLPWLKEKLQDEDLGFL
structure (smiles),measurement,value
"COc1cc(C)c2[nH]ccc2c1CN1CC2CCC2C1c1ccc(C(=O)O)cc1 (stereo unspecified) [US20250243186, Example 22]",IC50,45 nM
